From US20240262844A1, “PYRIDINIUM SALTS AND METHODS OF USE” (UNIVERSITY OF WYOMING, priority 2023, published 2024)
Structures can show the parent of a compound that is named as a salt.

Molecular target: T1, β2-Microglobulin (11.7 kDa) (Homo sapiens, UniProt P61769)
T1 construct: β2-microglobulin (Human Urine≥98% (SDS-PAGE)); purchased Lee Biosolutions; host or cells: human urine
Test: Photochemical labeling of β2-microglobulin (LC/MS, MS-MS)
Assay type: biochemical
Procedure: General Procedure B: Photochemical Irradiation of Peptides and Proteins: To a 2 mL Pyrex LC/MS vial (Thermo model #03-391-39) were sequentially added solutions containing the desired biomolecule, glutathione (GSH), pyridinium salt, and ammonium acetate (NH4OAc). The resulting solution was diluted to a final volume of 500 μL and then sparged using nitrogen for a minimum of 30 minutes prior to irradiation. The actively sparging solution was then placed in an EvoluChem™ PhotoRedOx Box photoreactor that was equipped with a Kessil, PR160 427 nm LED Lamp and was then irradiated (100% lamp intensity) for the designated time at room temperature while maintaining active sparging. The resultant reaction mixture was then analyzed directly by LC/MS. Analysis of labeling outcomes using LC/MS was performed either by extracted ion chromatogram intensities (method A) or by integrating the area under the peaks associated with peptide content (method B). […]
Labeling of β2-Microglobulin with Pyridinium Salt 2a (B2-Microglobulin-2a Conjugate). […] The reaction mixture was directly analyzed by LC/MS using method A and was estimated to have proceeded with 88% conversion with a >20:1 mono:di labeled ratio and 7% glutathionylation of all unlabeled and labeled protein content. β2-Microglobulin-2a conjugate (retention time (Tr)=3.26-4.70 min). […]

T1 sequence (P61769 21-119): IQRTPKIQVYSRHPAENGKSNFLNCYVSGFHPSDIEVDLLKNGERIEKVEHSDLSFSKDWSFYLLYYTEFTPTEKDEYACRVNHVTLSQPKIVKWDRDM

SMILES: COC(=O)N(C)[n+]1c(C)cc(-c2ccc3cc(OC)ccc3c2)cc1C [Pyridinium salt 2a, 1-((methoxycarbonyl)(methyl)amino)-4-(6-methoxynapthalen-2-yl)-2,6-dimethylpyridin-1-ium tetrafluoroborate]
- glutathionylation of all unlabeled and labeled protein content (10 μM β2-microglobulin, 200 μM pyridinium salt, 1 mM glutathione, 30 minutes): 7%
- site of tryptophan modification (digestion/MS-MS): Trp-60
